These results are taken from patent US4818759A, “Treatment of disease” (priority 1987, dated 1989).

The assay has as its system polyarthritis. Briefly: Rat adjuvant arthritis (Freund's adjuvant polyarthritis), global arthritic joint score. Format: in vivo, rats. The note with it: po, 384 h, read-out: ED50 (dose that produced a 50% reduction of the average global arthritic joint score relative to a control group).

Where two headings read alike, the source gives them in different places.

For `CC(=O)Oc1ccccc1C(=O)O` [Aspirin], the ED50 worked out at 102 mg/kg.

For `COc1ccc(OC)c(Cc2cnc3nc(N)nc(N)c3c2C)c1` [2,4-diamino-5-methyl-6-(2,5-dimethoxybenzyl)pyrido[2,3-d]pyrimidine isethionate], the ED50 (rats, in ground meal diet for 14 days from day of sensitization with Freund's adjuvant, evaluated on 16th day after sensitization) was determined as 19 mg/kg.
